Like-named read-outs stand apart in the source and are kept apart here.
Columns and labels:
[1] = test system: Adjuvant arthritis (paw volume increase) in rats; test: Adjuvant arthritis (method of Pearson), antiinflammatory action on the 5th day; type: in vivo, rat (male, Wistar-Lewis strain); conditions: Rattus norvegicus, 120 h; for inhibition in vivo at 50 mg/kg: po, 50 mg/kg p.o. once daily, 1st to 5th day, vs untreated control, read-out: Adjuvant arthritis (% inhibition at 50 mg/kg orally); for ED50: adjuvant arthritis, oral, determined graphically from dose-response curve
Protocol: The testing of the compounds of the formula I according to the invention for antiinflammatory action, influence on immunopathological processes, oxygen free radicaldeactivating properties and influence on arachidonic acid metabolism was carried out in the animal models and bioassays described in the following.
1. Adjuvant arthritis for influencing the antiinflammatory action (Table 2)
(§1) The investigations were carried out by the method of Pearson (Arthrit. Rheum. 1959, 2, 44). Male rats of a Wistar-Lewis strain having a body weight between 130 and 200 g were used as experimental animals. The compounds to be tested were administered orally (p. o.) once daily from the 1st to the 5th experimental day in doses of 50 mg per kg of body weight. The animals of one control group received only the vehicle. Each preparation group and the control group comprised 8 animals. The percentage reduction of the paw volume increase compared to that of the untreated control group was used as the criterion of action. The ED50 values were determined graphically from the dose-response curve.
(§2) 4-(3,5-Di-tert.-butyl-4-hydroxyphenyl)-2-methylthiazole i.e. the compound of the formula [drawing 26] according to US-A-4,535,165 mentioned at the beginning, was additionally included in this and the investigation below as a comparison preparation.

[2] = test system: Adjuvant arthritis (Perper modification; paw volume) in rats; test: Adjuvant arthritis (Perper modification), paw volume on the 21st day; type: in vivo, rat (male, Wistar-Lewis strain); conditions: for inhibition in vivo at 50 mg/kg: Rattus norvegicus, po, 504 h, 50 mg/kg/day, 1st to 12th day
Protocol: as §1, §2
a) Adjuvant arthritis (Perper modification)
The animals were only treated from the 1st to the 12th experimental day in the experimental arrangement described in item 1. After a treatment-free interval of 9 days, determination of the paw volume of the left and right hind paw was carried out on the 21st day (compare Table 3).

[3] = Free radical scavenger properties (reaction with DPPH); conditions: reaction with DPPH at 20° C.; determined graphically
Protocol: a) Free radical scavenger properties The testing in this test, which allows conclusions on the antioxidative potential of a substance, was carried out according to Smith et al., Biochem, Pharmacol. 1987. 36, 1456. In this test, the reaction of the compounds according to the invention with the stable free radical 1,1-diphenyl-2-picrylhydrazyl (DPPH) is monitored optically at 20° C. The rate constant K and reaction orders n in Table 5 were determined graphically in the customary manner.

[4] = test system: Arthus reaction (paw volume increase) in rats; test: Reverse passive Arthus reaction; type: in vivo, rat (male Sprague-Dawley)
Protocol: b) Reverse passive Arthus reaction
Male Sprague-Dawley rats having a body weight between 100 and 120 g. which had been divided into groups of 8 animals in each case, were used as experimental animals. The animals received a subplantar injection in the left hind paw of 0.5 mg of immunoglobulin in 0.1 ml of a sodium chloride solution 1 hour after oral administration of the test substance. After 4 hours, the Arthus reaction was measured, the percentage change in the paw volume increase compared to that of the control group treated only with vehicle being used as a measuring parameter for the action.

[5] = test system: 5-HETE formation in human neutrophils; test: Influence on 5-HETE formation in human neutrophils; type: cell-based; conditions: Neutrophil
Protocol: (§3) Moreover, the substances according to the invention were also characterized in cellular leukocyte systems in vitro as inhibitors of arachidonic acid metabolites. To detect the lipoxygenase metabolites, human neutrophils stimlated by calcium ionophore A 23 187 (70 mcmol/1) were incubated with ^14 C-arachidonic acid (81 mcmol/1) and the principal metabolites formed after 15 minutes at 37° C., such as 5-hydroxyeicosatetraenoic acid (5-HETE) and the more strongly proinflammatory leukotriene B4 (LTB4) were determined quantitatively (Tab. 6) with the aid of a radio monitor after separation by HPLC. The influence on the proinflammatory arachiconic acid metabolites thromboxane and LTB4 in cultures prepared from rat mast cells was determined in a corresponding manner (Tab. 7).

[6] = test system: LTB4 formation in human neutrophils; test: Influence on LTB4 formation in human neutrophils; type: cell-based; conditions: Neutrophil
Protocol: as §3

lipoxygenase = biological target: T1, lipoxygenase (Glycine max, UniProt P08170); test: Lipoxygenase (enzyme) inhibition in vitro; type: biochemical; conditions: at 50 μM
T1 construct: purchased Sigma, Deisenhofen, Germany L7127
T1 sequence (P08170 1-839): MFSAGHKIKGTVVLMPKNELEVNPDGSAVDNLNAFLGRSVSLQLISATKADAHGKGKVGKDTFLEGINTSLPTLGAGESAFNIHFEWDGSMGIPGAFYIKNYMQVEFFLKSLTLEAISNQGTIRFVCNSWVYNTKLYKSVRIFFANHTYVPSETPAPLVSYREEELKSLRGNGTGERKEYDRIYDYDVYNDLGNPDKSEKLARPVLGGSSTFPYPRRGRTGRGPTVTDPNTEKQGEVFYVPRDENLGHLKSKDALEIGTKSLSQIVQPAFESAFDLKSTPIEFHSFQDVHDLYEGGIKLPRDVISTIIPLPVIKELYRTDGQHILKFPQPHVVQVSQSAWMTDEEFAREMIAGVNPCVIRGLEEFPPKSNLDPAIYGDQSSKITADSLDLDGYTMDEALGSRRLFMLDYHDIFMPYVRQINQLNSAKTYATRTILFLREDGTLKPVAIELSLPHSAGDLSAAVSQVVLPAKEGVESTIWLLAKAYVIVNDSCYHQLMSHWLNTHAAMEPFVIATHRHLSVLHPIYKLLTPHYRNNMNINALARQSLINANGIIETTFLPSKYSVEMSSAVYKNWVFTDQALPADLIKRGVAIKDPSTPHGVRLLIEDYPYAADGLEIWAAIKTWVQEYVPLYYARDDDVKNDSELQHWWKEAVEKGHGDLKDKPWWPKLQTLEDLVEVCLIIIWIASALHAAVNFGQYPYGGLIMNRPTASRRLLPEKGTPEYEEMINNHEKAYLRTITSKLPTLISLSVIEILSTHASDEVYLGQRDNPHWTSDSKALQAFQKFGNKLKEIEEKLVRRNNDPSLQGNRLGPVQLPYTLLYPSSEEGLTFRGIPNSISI
Protocol: The inhibitory action of the compounds according to the invention is measured on the in vitro arachidonic acid degradation catalyzed by cyclooxycenase and lipoxycenase with the aid of the test systems described in Weithmann and Alpermann, Arzneim.-Forsch. 1985, 35, 947: The cyclooxygenase-catalyzed synthesis of prostaglandins from arachidonic acid is measured in the microsomal cyclooxygenase system (fraction from sheep seminal vesicles, Paesel, Frankfurt, Germany). The coenzyme is adrenaline, whose conversion to adrenochrome is monitored by spectrophotometry at 492 nm. Cis-9-cis-12-linoleic acid is incubated with lipoxygenase (L7127, Sigma, Deisenhofen, Germany) in the lipoxygenase system in vitro and the formation of conjugated double bonds taking place during the oxygenation reaction is monitored optically at 234 nm.
The inhibitor actions, or the inhibitor concentrations necessary for a 50 % inhibition of enzyme activity (IC50 values), have been determined for the following examples according to the invention: […]

[7] = test system: Adjuvant arthritis (Perper modification; paw volume) in rats; test: Adjuvant arthritis (Perper modification), paw volume on the 21st day; type: in vivo, rat (male, Wistar-Lewis strain); conditions: Rattus norvegicus, po, 504 h, 1st to 12th day; for inhibition in vivo at 5 mg/kg: 5 mg/kg/day; for inhibition in vivo at 10 mg/kg: 10 mg/kg/day
[8] = read-out: % inhibition on the 21st day, Left paw
[9] = read-out: % inhibition on the 21st day, Right paw

Structure (SMILES)	inhibition in vivo at 50 mg/kg [1]	inhibition in vivo at 50 mg/kg [2, 8]	inhibition in vivo at 50 mg/kg [2, 9]	reaction order n [3]	also measured
Cc1nc(-c2cc(C(C)(C)C)c(O)c(C(C)(C)C)c2)cs1 [Comparison preparation, 4-(3,5-Di-tert.-butyl-4-hydroxyphenyl)-2-methylthiazole, reference compound]	67%	12%	21%		action in the Perper modification of adjuvant arthritis (in words) ([2]; comparison with preparation from US-A-4,535,165): only a suggested action
CCOC(=O)CCc1nc(-c2cc(C(C)(C)C)c(O)c(C(C)(C)C)c2)cs1 [Example 1, Ethyl 3-[4-(3,5-di-tert.-butyl-4-hydroxyphenyl)thiazol-2-yl]propionate]	73%	45%	49%	< 1	ED50 [1]: 5.7 mg/kg
CCOC(=O)C=Cc1nc(-c2cc(C(C)(C)C)c(O)c(C(C)(C)C)c2)cs1 [Example 2, Ethyl 3-[4-(3,5-di-tert.-butyl-4-hydroxyphenyl)thiazol-2-yl]acrylate]				1	
CC(C)(C)c1cc(-c2csc(C=C3CCNC3=O)n2)cc(C(C)(C)C)c1O [Example 4, 3-[4-(3,5-Di-tert.-butyl-4-hydroxyphenyl)thiazol-2-ylmethylidene]pyrrolidin-2-one]	54%				
CC(C)(C)c1cc(-c2csc(C=NOCC(=O)O)n2)cc(C(C)(C)C)c1O [Example 5]	51%	20%	42%		% inhibition (Arthus reaction) ([4]; 60 mg/kg orally): 38%
CC(C)(OCc1nc(-c2cc(C(C)(C)C)c(O)c(C(C)(C)C)c2)cs1)C(=O)O [Example 6]	70%				
CC(C)(C)c1cc(-c2csc(CC(=O)O)n2)cc(C(C)(C)C)c1O [Example 9]				< 1	activity at 0.1 µM ([5]; 0.1 μM, n = 6, read-out: 5-HETE formation, Residual activity (%)): 91.5 ± 10%; activity at 1 µM ([5]; 1 μM, n = 6, read-out: 5-HETE formation, Residual activity (%)): 80 ± 8%; activity at 10 µM ([5]; 10 μM, n = 6, read-out: 5-HETE formation, Residual activity (%)): 75 ± 13%; activity at 100 µM ([5]; 100 μM, n = 9, read-out: 5-HETE formation, Residual activity (%)): 21 ± 8%; activity at 0.1 µM ([6]; 0.1 μM, n = 6, read-out: LTB4 formation, Residual activity (%)): 70 ± 12%; activity at 1 µM ([6]; 1 μM, n = 6, read-out: LTB4 formation, Residual activity (%)): 79 ± 11%; activity at 10 µM ([6]; 10 μM, n = 6, read-out: LTB4 formation, Residual activity (%)): 73 ± 12%; activity at 100 µM ([6]; 100 μM, n = 9, read-out: LTB4 formation, Residual activity (%)): 20.5 ± 11%
CC(C)(C)c1cc(-c2csc(CCCC(=O)O)n2)cc(C(C)(C)C)c1O [Example 10]	71%				
CC(C)(C)c1cc(-c2csc(C=CC(=O)O)n2)cc(C(C)(C)C)c1O [Example 11]	63%	44%	51%	1	ED50 [1]: 12.6 mg/kg
COC(=O)C=Cc1nc(-c2cc(C(C)(C)C)c(O)c(C(C)(C)C)c2)cs1 [Example 12]				1	inhibition at 50 µM (lipoxygenase): 73%
COC(=O)CCc1nc(-c2cc(C(C)(C)C)c(O)c(C(C)(C)C)c2)cs1 [Example 13]	74%	44%	31%	1	
CCOC(=O)CCc1nc(-c2cc(C(C)(C)C)c(O)c(C(C)(C)C)c2)c(C)s1 [Example 14]	61%	22%	49%		
Cc1cc(-c2csc(CCC(=O)O)n2)cc(C(C)(C)C)c1O [Example 17]	67%	60%	38%		ED50 [1]: 7.5 mg/kg
CC(C)(C)c1cc(-c2csc(CSCC(=O)O)n2)cc(C(C)(C)C)c1O [Example 18]				1	% inhibition (Arthus reaction) ([4]; 100 mg/kg orally): 50%
CN(O)C(=O)CCc1nc(-c2cc(C(C)(C)C)c(O)c(C(C)(C)C)c2)cs1 [Example 19]	75%			< 1	ED50 [1]: 2.5 mg/kg; inhibition in vivo at 5 mg/kg [7, 8]: 59%; inhibition in vivo at 5 mg/kg [7, 9]: 70%; inhibition in vivo at 10 mg/kg [7, 8]: 72%; inhibition in vivo at 10 mg/kg [7, 9]: 85%; % inhibition (Arthus reaction) ([4]; 50 mg/kg orally): 45%
CONC(=O)CCc1nc(-c2cc(C(C)(C)C)c(O)c(C(C)(C)C)c2)cs1 [Example 20]	66%	50%	35%		
CC(C)(C)c1cc(-c2csc(CCC(=O)Nc3nn[nH]n3)n2)cc(C(C)(C)C)c1O [Example 21]	65%	42%	54%	1	% inhibition (Arthus reaction) ([4]; 50 mg/kg orally): 48%
